Data published in ChEMBL document CHEMBL1153339, “Design, synthesis, and anti-HCV activity of thiourea compounds” (Bioorg Med Chem Lett, 2009).

How the values were obtained:
Hepatitis C virus = assay: Antiviral activity against HCV 1b infected in human Ava5 cells expressing EG(delta-4AB)SEAP fusion protein by subgenomic replicon assay; assay type: functional, organism-based, Hepacivirus hominis; details: genotype 1b
[1] = Selectivity index, ratio of CC50 for human Ava5 cells to EC50 for HCV 1b
[2] = Cytotoxicity against human Ava5 cells; assay type: cell-based

EC50 (Hepatitis C virus) | SMILES | Ratio CC50/EC50 [1] | CC50 [2]
59 nM | NC(=S)Nc1cccc(OCCCCCOc2ccccc2)c1 | >847 | > 50 µM
> 50000 nM | NC(=S)Nc1cccc(OCCCCCOc2ccc(C(=O)O)cc2)c1 | >1 | > 50 µM
1010 nM | NC(=S)Nc1ccccc1OCCCCCc1ccccc1 | 31 | 31 µM
913 nM | NC(=S)Nc1cccc(OCCCCCOc2ccc(N3CCCC3)cc2)c1 | 18 | 16 µM
594 nM | CCN(CC)c1ccc(OCCCCCOc2cccc(NC(N)=S)c2)cc1 | >84 | > 50 µM
250 nM | NC(=S)Nc1cccc(OCCCCCOc2cccc3ncccc23)c1 | 60 | 15 µM
47 nM | NC(=S)Nc1cccc(OCCCCCCc2ccccc2)c1 | 596 | 28 µM
279 nM | NC(=S)Nc1cccc(OCCCCCOc2ccccn2)c1 | >179 | > 50 µM
1130 nM | NC(=S)Nc1cccc(OCCCCCOc2cccnc2)c1 | >44 | > 50 µM
31500 nM | S=C(Nc1ccccc1)Nc1cccc(OCCCCCc2ccccc2)c1 | 1 | 35 µM
13400 nM | S=C(NCCc1ccccc1)Nc1cccc(OCCCCCc2ccccc2)c1 | 2 | 33 µM
58 nM | NC(=S)Nc1cccc(OCCCCCOc2cccc(Cc3ccccc3)c2)c1 | 224 | 13 µM
107 nM | NC(=S)Nc1cccc(OCCCCCOc2cccc(Oc3ccccc3)c2)c1 | 168 | 18 µM
2990 nM | NC(=S)Nc1cccc(OCCCCCOc2ccncc2)c1 | >17 | > 50 µM
355 nM | NC(=S)Nc1cccc(OCCCCCOc2cccc3[nH]ccc23)c1 | >141 | > 50 µM
481 nM | NC(=S)Nc1cccc(OCCCCCOc2cccc3cnccc23)c1 | 54 | 26 µM
231 nM | NC(=S)Nc1cccc(OCCCc2ccccc2)c1 | >216 | > 50 µM
335 nM | NC(=S)Nc1cccc(OCCc2ccccc2)c1 | >149 | > 50 µM
97 nM | NC(=S)Nc1cccc(OCCCCCOc2ccccc2-c2ccccc2)c1 | 134 | 13 µM
58 nM | NC(=S)Nc1cccc(OCCCCCOc2cccc3ccccc23)c1 | 241 | 14 µM
159 nM | NC(=S)Nc1cccc(OCCCCc2ccccc2)c1 | >314 | > 50 µM
191 nM | NC(=S)Nc1cccc(OCCCCCOc2ccc(-c3ccccc3)cc2)c1 | >262 | > 50 µM
214 nM | NC(=S)Nc1cccc(OCCCCCOc2cccc(-c3ccccc3)c2)c1 | 61 | 13 µM
136 nM | NC(=S)Nc1cccc(OCCCCCOc2ccc(-c3ccco3)cc2)c1 | 81 | 11 µM

EC50 (Hepatitis C virus) | SMILES | Ratio CC50/EC50 [1] | CC50 [2]
104 nM | CC(CCOc1ccccc1)CCOc1cccc(NC(N)=S)c1 (stereo unspecified) | >481 | > 50 µM
105 nM | CC(C)(CCOc1ccccc1)CCOc1cccc(NC(N)=S)c1 | 124 | 13 µM
72 nM | NC(=S)Nc1cccc(OCCCCCOc2ccc(Br)cc2)c1 | 264 | 19 µM
218 nM | COc1ccc(OCCCCCOc2cccc(NC(N)=S)c2)cc1 | >229 | > 50 µM
48 nM | NC(=S)Nc1cccc(OCCCCCc2ccccc2)c1 | 458 | 22 µM
97 nM | NC(=S)Nc1cccc(OCCCCCCCc2ccccc2)c1 | 237 | 23 µM
197 nM | NC(=S)Nc1ccc(OCCCCCc2ccccc2)cc1 | 51 | 10 µM
143 nM | NC(=S)Nc1cccc(NCCCCCc2ccccc2)c1 | >350 | > 50 µM
685 nM | CCNC(=S)Nc1cccc(OCCCCCc2ccccc2)c1 | >73 | > 50 µM
708 nM | CCCNC(=S)Nc1cccc(OCCCCCc2ccccc2)c1 | 45 | 32 µM
177 nM | NC(=S)Nc1cccc(OCCCCCOc2cccc(Nc3ccccc3)c2)c1 | 62 | 11 µM
218 nM | NC(=S)Nc1cccc(OCCCCCOc2cccc(C(=O)c3ccccc3)c2)c1 | 60 | 13 µM
561 nM | NC(=S)Nc1cccc(OCc2ccccc2)c1 | >89 | > 50 µM
407 nM | NC(=S)Nc1cccc(OCCCCCOc2ccc(N3CCCCC3)cc2)c1 | 29 | 12 µM
485 nM | NC(=S)Nc1cccc(OCCCCCOc2ccc(N3CCOCC3)cc2)c1 | >103 | > 50 µM
494 nM | NC(=S)Nc1cccc(Oc2ccccc2)c1 | >101 | > 50 µM
822 nM | CNC(=S)Nc1cccc(OCCCCCc2ccccc2)c1 | >61 | > 50 µM
411 nM | NC(=S)Nc1cccc(OCCCCCOc2ccnc3ccccc23)c1 | 58 | 24 µM
255 nM | NC(=S)Nc1cccc(OCCCCCOc2ccc(-n3cccc3)cc2)c1 | >196 | > 50 µM
121 nM | NC(=S)Nc1cccc(OCCCCCOc2ccc(-c3cccs3)cc2)c1 | >413 | > 50 µM
72 nM | NC(=S)Nc1cccc(OCCCCCOc2ccc(F)cc2)c1 | 69 | 5 µM
7240 nM | S=C(NCc1ccccc1)Nc1cccc(OCCCCCc2ccccc2)c1 | 4 | 32 µM
72 nM | NC(=S)Nc1cccc(OCCCCCOc2ccc(Cl)cc2)c1 | 97 | 7 µM
